From patent US20250042848A1, “DEUTERATED FUNCTIONALIZED DERIVATIVES OF alpha-ALANINE, IN [sequence] FOR THE TREATMENT OF NEUROLOGICAL DISEASES” (UNIWERSYTET JAGIELLONSKI, priority 2021, published 2025)

What was measured:
[1] = tested on: human liver microsomes (HLMs); assay: In vitro metabolic stability, human liver microsomes; format: in vitro ADME; conditions: 120-minute incubation with HLMs
Method: (§1) Metabolic stability assessment was performed using mouse (MLMs) and human (HLMs) liver microsomes purchased from Sigma-Aldrich (St. Louis, MO, USA). The detailed methodology is described in the literature (Kamiński et al. J. Med. Chem. 2015, 58, 5274-5286). The reaction mixture was prepared by mixing […] of the tested compound with mouse or human microsomes (1 mg/mL) in 10 mM TRIS-HCl buffer. The reaction mixture was pre-incubated for 5 min at 37° C. After the initial incubation, 50 μL of the NADPH Regeneration System (Promega, Madison, WI, USA) was added to initiate the reaction. The reaction mixture was then incubated for 120 min at 37° C. 200 μL of cold extra pure methanol was added to complete the reaction. The mixture was then centrifuged at 14,000 g for 15 min and the supernatants were analyzed using a Waters ACQUITY™ TQD LC/MS system with a TQ detector (Waters, Milford, USA). Each experiment was performed in triplicate.

[2] = tested on: spontaneous locomotor activity of mice; conditions: mouse, in vivo
Method: For this purpose, the number of light beam crossings in the cages was counted in each group of animals during a 30-minute observation.
The experiments were carried out on male albino mice (CD-1) weighing 25-30 g, provided by an accredited animal facility. All procedures were performed in accordance with the applicable Polish and European guidelines on the ethics of research on animals, after obtaining the appropriate approval. The substance was administered intraperitoneally after suspension in a 1% Tween 80 solution, as single injections of 0.1 mL/10 g b.w., 30 minutes before a given test.
The assessment of the influence of the tested compound on the spontaneous locomotor activity of animals (assessment of the sedative or activating effect) was carried out in accordance with the methodology described in the scientific literature (Mogilski et al. Inflamm. Res. 2017, 66, 79-95), using a cage with dimensions 40×40×31 cm (Activity Cage; Ugo Basile, Gemonio VA, Italy). The compound was administered 30 minutes before the experiment. The number of light beam crossings was counted in each group during the next 30 min at 10-minute intervals. The study group consisted of 10 animals.

[3] = tested on: mouse liver microsomes (MLMs); assay: In vitro metabolic stability, mouse liver microsomes; format: in vitro ADME; conditions: 120-minute incubation with MLMs, NADPH
Method: as §1

Question: With `[2H]C1([2H])C(=O)N([C@H](C)C(=O)NCc2ccccc2)C(=O)C1([2H])[2H]` [d4-(R)-1, (R)-N-benzyl-2-(2,5-dioxopyrrolidin-1-yl-3,3,4,4-d4) propanamide] as the molecule, how does the metabolic stability [1] read?
Answer: high metabolic stability

Question: And the “locomotor activity (light beam crossings in 30 min), % of the initial value (vehicle)” value [2]?
Answer: 46.90%

Question: What about the “metabolic stability (metabolites in UPLC chromatograms)” value [3] of the same molecule?
Answer: no metabolites appeared
